Measured values published in ChEMBL document CHEMBL4312017, “Synthesis and discovery of new compounds bearing coumarin scaffold for the treatment of pulmonary fibrosis” (Eur J Med Chem, 2020).
The source made the active and inactive calls. The calls are words filed in the database; no cut-off is given here.

Key:
[1] = Toxicity in BLM-induced C57BL/6 mouse pulmonary fibrosis model assessed as survival rate at 50 and 100 mg/kg, po observed for 28 days; format: organism-based; conditions: in vivo
NRK-49F [2] = assay: Inhibition of TGF-beta-induced collagen accumulation in rat NRK-49F cells at 10 uM incubated for 2 days by PSR staining based microscopic analysis relative to control; format: functional; conditions: 48 h
[3] = Cytotoxicity against rat NRK-49F cells assessed as cell viability at 10 uM incubated for 72 hrs by MTT assay; format: cell-based; conditions: read-out: Activity
NRK-49F [4] = assay: Inhibition of TGF-beta-induced collagen accumulation in rat NRK-49F cells incubated for 2 days by PSR staining based microscopic analysis; format: functional, cell-based
NIH3T3 = assay: Inhibition of TGF-beta-induced […] migration in mouse NIH/3T3 cells at 1 uM incubated for 24 hrs by Transwell assay; format: functional, cell-based
[5] = target: T1, Transforming growth factor beta-1 proprotein/Smad3 (Rattus norvegicus) (UniProt P84025+P17246); assay: Inhibition of TGFbeta/Smad3 pathway in rat NRK-49F cells assessed as reduction in TGF-beta1-induced COL1A1 expression in at 20 and 40 uM incubated for 24 hrs by Western blot analysis; format: cell-based
T1 sequence (P17246 whole entry, looked up): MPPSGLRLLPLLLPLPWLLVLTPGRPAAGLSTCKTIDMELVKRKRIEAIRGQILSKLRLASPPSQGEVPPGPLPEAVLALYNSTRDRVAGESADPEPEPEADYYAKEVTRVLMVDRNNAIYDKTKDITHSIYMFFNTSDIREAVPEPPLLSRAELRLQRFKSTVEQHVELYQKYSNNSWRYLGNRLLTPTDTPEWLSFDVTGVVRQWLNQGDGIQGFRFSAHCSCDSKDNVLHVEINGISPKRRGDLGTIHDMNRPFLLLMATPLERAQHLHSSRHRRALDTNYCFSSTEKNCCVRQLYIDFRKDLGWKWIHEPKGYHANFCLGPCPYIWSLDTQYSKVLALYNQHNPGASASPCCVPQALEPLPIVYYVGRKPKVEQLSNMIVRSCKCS
T1 sequence (P84025 whole entry, looked up): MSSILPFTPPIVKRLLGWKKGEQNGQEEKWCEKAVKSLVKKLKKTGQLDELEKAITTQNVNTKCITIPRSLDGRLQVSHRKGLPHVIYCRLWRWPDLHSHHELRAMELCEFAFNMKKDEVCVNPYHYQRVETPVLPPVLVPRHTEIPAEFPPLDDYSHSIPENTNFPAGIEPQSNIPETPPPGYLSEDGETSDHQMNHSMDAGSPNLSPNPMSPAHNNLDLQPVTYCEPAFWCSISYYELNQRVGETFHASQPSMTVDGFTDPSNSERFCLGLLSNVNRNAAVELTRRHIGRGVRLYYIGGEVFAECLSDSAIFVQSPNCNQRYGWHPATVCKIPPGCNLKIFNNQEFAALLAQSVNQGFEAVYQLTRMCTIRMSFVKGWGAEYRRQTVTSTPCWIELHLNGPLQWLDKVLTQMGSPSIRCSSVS

[6] = target: T1, Transforming growth factor beta-1 proprotein/Smad3 (Rattus norvegicus); assay: Inhibition of TGFbeta/Smad3 pathway in rat NRK-49F cells assessed as reduction in TGF-beta1-induced alpha-SMA expression in at 20 and 40 uM incubated for 24 hrs by Western blot analysis; format: cell-based
[7] = target: T1, Transforming growth factor beta-1 proprotein/Smad3 (Rattus norvegicus); assay: Inhibition of TGFbeta/Smad3 pathway in rat NRK-49F cells assessed as reduction in TGF-beta1-induced Smad3 phosphorylation at 20 and 40 uM incubated for 24 hrs by Western blot analysis; format: cell-based
[8] = Cmax in Sprague-Dawley rat at 5 mg/kg, iv measured upto 24 hrs; format: ADME, organism-based; parameters: dose 5 mg/kg, route intravenous; conditions: in vivo
[9] = Tmax in Sprague-Dawley rat at 5 mg/kg, iv measured upto 24 hrs; format: ADME, organism-based; conditions: in vivo
[10] = Half life in Sprague-Dawley rat at 5 mg/kg, iv measured upto 24 hrs; format: ADME, organism-based; conditions: in vivo
[11] = AUC (0 to t) in Sprague-Dawley rat at 5 mg/kg, iv measured upto 24 hrs; format: ADME, organism-based; parameters: dose 5 mg/kg, time < 24 hr, route intravenous; conditions: in vivo
[12] = Cmax in Sprague-Dawley rat at 10 mg/kg, po measured upto 24 hrs; format: ADME, organism-based; parameters: dose 10 mg/kg, route oral; conditions: in vivo
[13] = Tmax in Sprague-Dawley rat 10 mg/kg, po measured upto 24 hrs; format: ADME, organism-based; conditions: in vivo
[14] = Half life in Sprague-Dawley rat 10 mg/kg, po measured upto 24 hrs; format: ADME, organism-based; conditions: in vivo
[15] = AUC (0 to t) in Sprague-Dawley rat 10 mg/kg, po measured upto 24 hrs; format: ADME, organism-based; parameters: time < 24 hr, dose 10 mg/kg, route oral; conditions: in vivo
[16] = Oral bioavailability in Sprague-Dawley rat 10 mg/kg measured upto 24 hrs; format: ADME, organism-based; conditions: in vivo
[17] = Clearance in Sprague-Dawley rat 10 mg/kg, po measured upto 24 hrs; format: ADME, organism-based; conditions: in vivo
Mus musculus [18] = assay: Antifibrotic activity against C57BL/6 mouse pulmonary fibrosis model assessed as reduction in bleomycin-iduced hydroxyproline level at 50 mg/kg, po administered for 28 days and measured on day 14 and 28 by spectrophotometry; format: functional, organism-based
Mus musculus [19] = assay: Antifibrotic activity against C57BL/6 mouse pulmonary fibrosis model assessed as reduction in bleomycin-iduced hydroxyproline level at 100 mg/kg, po administered for 28 days and measured on day 14 and 28 by spectrophotometry; format: functional, organism-based
Mus musculus [20] = assay: Antifibrotic activity against BLM-induced C57BL/6 mouse pulmonary fibrosis model assessed as decrease in bronchiolar epithelial cell shedding at 50 mg/kg, po administered for 28 days and measured on day 14 and 28 by HE staining based fluorescence microscopy; format: functional, organism-based
Mus musculus [21] = assay: Antifibrotic activity against BLM-induced C57BL/6 mouse pulmonary fibrosis model assessed as decrease in bronchioles inflammatory cell infiltration at 50 mg/kg, po administered for 28 days and measured on day 14 and 28 by HE staining based fluorescence microscopy; format: functional, organism-based
Mus musculus [22] = assay: Antifibrotic activity against BLM-induced C57BL/6 mouse pulmonary fibrosis model assessed as decrease in perivascular inflammatory cell infiltration at 50 mg/kg, po administered for 28 days and measured on day 14 and 28 by HE staining based fluorescence microscopy; format: functional, organism-based
Mus musculus [23] = assay: Antifibrotic activity against BLM-induced C57BL/6 mouse pulmonary fibrosis model assessed as decrease in bronchial epithelial vacuolar degeneration at 50 mg/kg, po administered for 28 days and measured on day 14 and 28 by HE staining based fluorescence microscopy; format: functional, organism-based
Mus musculus [24] = assay: Antifibrotic activity against BLM-induced C57BL/6 mouse pulmonary fibrosis model assessed as decrease in bronchiolar epithelial cell shedding at 100 mg/kg, po administered for 28 days and measured on day 14 and 28 by HE staining based fluorescence microscopy; format: functional, organism-based
Mus musculus [25] = assay: Antifibrotic activity against BLM-induced C57BL/6 mouse pulmonary fibrosis model assessed as decrease in bronchioles inflammatory cell infiltration at 100 mg/kg, po administered for 28 days and measured on day 14 and 28 by HE staining based fluorescence microscopy; format: functional, organism-based
Mus musculus [26] = assay: Antifibrotic activity against BLM-induced C57BL/6 mouse pulmonary fibrosis model assessed as decrease in perivascular inflammatory cell infiltration at 100 mg/kg, po administered for 28 days and measured on day 14 and 28 by HE staining based fluorescence microscopy; format: functional, organism-based
Mus musculus [27] = assay: Antifibrotic activity against BLM-induced C57BL/6 mouse pulmonary fibrosis model assessed as decrease in bronchial epithelial vacuolar degeneration at 100 mg/kg, po administered for 28 days and measured on day 14 and 28 by HE staining based fluorescence microscopy; format: functional, organism-based
Mus musculus [28] = assay: Antifibrotic activity against BLM-induced C57BL/6 mouse pulmonary fibrosis model assessed as reduction in total white blood cells in BALF at 50 mg/kg, po administered for 28 days and measured on day 28; format: functional, organism-based
Mus musculus [29] = assay: Antifibrotic activity against BLM-induced C57BL/6 mouse pulmonary fibrosis model assessed as reduction in neutrophils in BALF at 50 mg/kg, po administered for 28 days and measured on day 28; format: functional, organism-based
Mus musculus [30] = assay: Antifibrotic activity against BLM-induced C57BL/6 mouse pulmonary fibrosis model assessed as reduction in lymphocytes in BALF at 50 mg/kg, po administered for 28 days and measured on day 28; format: functional, organism-based
Mus musculus [31] = assay: Antifibrotic activity against BLM-induced C57BL/6 mouse pulmonary fibrosis model assessed as reduction in total white blood cells in BALF at 100 mg/kg, po administered for 28 days and measured on day 28; format: functional, organism-based
Mus musculus [32] = assay: Antifibrotic activity against BLM-induced C57BL/6 mouse pulmonary fibrosis model assessed as reduction in neutrophils in BALF at 100 mg/kg, po administered for 28 days and measured on day 28; format: functional, organism-based
Mus musculus [33] = assay: Antifibrotic activity against BLM-induced C57BL/6 mouse pulmonary fibrosis model assessed as reduction in lymphocytes in BALF at 100 mg/kg, po administered for 28 days and measured on day 28; format: functional, organism-based
Mus musculus [34] = assay: Antifibrotic activity against BLM-induced C57BL/6 mouse pulmonary fibrosis model assessed as increase in time for reduction of alveoli at 50 mg/kg, po administered for 28 days and measured on day 14 and 28 by HE staining based fluorescence microscopy; format: functional, organism-based
Mus musculus [35] = assay: Antifibrotic activity against BLM-induced C57BL/6 mouse pulmonary fibrosis model assessed as decrease in destruction alveolar structure at 50 mg/kg, po administered for 28 days and measured on day 14 and 28 by HE staining based fluorescence microscopy; format: functional, organism-based
Mus musculus [36] = assay: Antifibrotic activity against BLM-induced C57BL/6 mouse pulmonary fibrosis model assessed as increase in time for reduction of alveoli at 100 mg/kg, po administered for 28 days and measured on day 14 and 28 by HE staining based fluorescence microscopy; format: functional, organism-based
Mus musculus [37] = assay: Antifibrotic activity against BLM-induced C57BL/6 mouse pulmonary fibrosis model assessed as decrease in destruction alveolar structure at 100 mg/kg, po administered for 28 days and measured on day 14 and 28 by HE staining based fluorescence microscopy; format: functional, organism-based

O=C(CN1CCCCC1)Nc1ccc(Oc2cc(=O)oc3ccccc23)cc1
survival at 672 h [1]: 90% | inhibition at 10 µM (NRK-49F [2]): 85.1% | viability at 72 h, 10 µM [3]: 93.6% | inhibition (NRK-49F [4]): Dose-dependent effect | IC50 (NRK-49F [4]; 48 h): 4.31 µM | inhibition (NIH3T3): Active | inhibition [5]: Active | inhibition [6]: Active | inhibition [7]: Active | Cmax [8]: 316 ng/mL | Tmax [9]: 2.68 h | half-life [10]: 7.42 h | AUC(0-t) at 24 h [11]: 1390 ng·h/mL | Cmax [12]: 74.7 ng/mL | Tmax [13]: 0.63 h | half-life [14]: 13.1 h | AUC(0-t) at 24 h [15]: 1100 ng·h/mL | bioavailability [16]: 39.9% | CL/F [17]: 108 mL/min/kg | Activity (Mus musculus [18]): inactive | Activity (Mus musculus [19]): Active | Activity (Mus musculus [20]): Active | Activity (Mus musculus [21]): Active | Activity (Mus musculus [22]): Active | Activity (Mus musculus [23]): Active | Activity (Mus musculus [24]): Active | Activity (Mus musculus [25]): Active | Activity (Mus musculus [26]): Active | Activity (Mus musculus [27]): Active | Activity (Mus musculus [28]): Active | Activity (Mus musculus [29]): Active | Activity (Mus musculus [30]): Active | Activity (Mus musculus [31]): Active | Activity (Mus musculus [32]): Active | Activity (Mus musculus [33]): Active | Activity (Mus musculus [34]): Active | Activity (Mus musculus [35]): Active | Activity (Mus musculus [36]): Active | Activity (Mus musculus [37]): Active
